Assay results taken from US20100292214A1, “Compounds with Antiparasitic Activity, Applications thereof to the Treatment of Infectious Diseases Caused by Apicomplexans” (commissariat a l'Energie Atomique, priority 2007, published 2010).
Counter-ions that a name gives are not always drawn. Like-named read-outs stand apart in the source and are kept apart here.

How the values were obtained:
[1] = system: Toxoplasma gondii RH-β1 strain; assay: microbe, parasite or virus in culture; type: cell-based; details: Toxoplasma gondii, read-out: IC50 assessed on Toxoplama Gondii
[2] = system: asynchronous 3D7 chloroquine-sensitive P. falciparum infected red blood cells; assay: Labeled hypoxanthine incorporation assay (in vitro anti-malarial activity); type: cell-based; details: Plasmodium falciparum, 3D7, Erythrocyte, read-out: IC50 assessed on Plasmodium Falciparum
[3] = 3D7 chloroquine-sensitive strain, infected RBC, 48 h contact, [3H]-hypoxanthine incorporation, two independent experiments in duplicates

Structure (SMILES)	IC50 [1] [nM]	IC50 [2, 3] [nM]	IC50 [2] [nM]
O=C(OCCCN(Cc1ccccc1)Cc1cccc(Oc2ccccc2)c1)N1CCC(n2c(=O)[nH]c3ccccc32)CC1 [Compound 146, 3-(benzyl(3-phenoxybenzyl)amino)propyl 4-(2-oxo-2,3-dihydro-1H-benzo[d]imidazol-1-yl)piperidine-1-carboxylate hydrochloride]	1500	1960	
C[C@@H](COC(=O)N1CCC(n2c(=O)[nH]c3ccccc32)CC1)N(Cc1ccccc1)Cc1cccc2ccccc12 [Compound 138, (S)-2-(benzyl(naphthalen-1-ylmethyl)amino)propyl 4-(2-oxo-2,3-dihydro-1H-benzo[d]imidazol-1-yl)piperidine-1-carboxylate hydrochloride]	3750	2550	
O=C(OCCC1CCN(Cc2ccccc2)CC1)N1CCC(n2c(=O)[nH]c3ccccc32)CC1 [Compound 40, 2-(1-benzylpiperidin-4-yl)ethyl 4-(1,2-dihydro-2-oxobenzo[d]imidazol-3-yl)piperidine-1-carboxylate]	980	8160	
C[C@@H](COC(=O)N1CCC(n2c(=O)n(S(=O)(=O)c3cccs3)c3ccccc32)CC1)N(Cc1ccccc1)Cc1ccccc1 [Compound 59, (S)-2-(dibenzylamino)propyl 4-(2-oxo-3-(thiophen-2-ylsulfonyl)-2,3-dihydro-1H-benzo[d]imidazol-1-yl)piperidine-1-carboxylate]	3800	470	
C[C@@H](COC(=O)N1CCC(n2c(=O)[nH]c3ccccc32)CC1)N(Cc1ccccc1)Cc1cccc(OCc2ccccc2)c1 [Compound 136, (S)-2-(benzyl(3-(benzyloxy)benzyl)amino)propyl 4-(2-oxo-2,3-dihydro-1H-benzo[d]imidazol-1-yl)piperidine-1-carboxylate hydrochloride]	800	1600	
O=C(OCCN(Cc1ccccc1)Cc1ccc(F)cc1)N1CCC(n2c(=O)[nH]c3ccccc32)CC1 [Compound 119, 2-(benzyl(4-fluorobenzyl)amino)ethyl 4-(2-oxo-2,3-dihydro-1H-benzo[d]imidazol-1-yl)piperidine-1-carboxylate hydrochloride]	1400	3570	
O=c1[nH]c2ccccc2n1C1CCN(CCCCN(Cc2ccccc2)Cc2ccccc2)CC1 [Compound 9, 1-(1-(4-(dibenzylamino)butyl)piperidin-4-yl)-1H-benzo[d]imidazol-2(3H)-one]	1500	2950	
Cn1c(CN(CCOC(=O)N2CCC(n3c(=O)[nH]c4ccccc43)CC2)Cc2ccccc2)cc2ccccc21 [Compound 132, 2-(benzyl((1-methyl-1H-indol-2-yl)methyl)amino)ethyl 4-(2-oxo-2,3-dihydro-1H-benzo[d]imidazol-1-yl)piperidine-1-carboxylate hydrochloride]	1200	4200	
C[C@@H](COC(=O)N1CCC(n2c(=O)n(CCNC(=O)OC(C)(C)C)c3ccccc32)CC1)N(Cc1ccccc1)Cc1ccccc1 [Compound 73, (S)-2-(dibenzylamino)propyl 4-(3-(2-tert-butyloxycarbonylaminoethyl)-2-oxo-2,3-dihydro-1H-benzo[d]imidazol-1-yl)piperidine-1-carboxylate]	3000	1420	
Cc1nc2ccccc2n1C1CCN(C(=O)OC[C@H](C)N(Cc2ccccc2)Cc2ccccc2)CC1 [Compound 15, (S)-2-(dibenzylamino)propyl 4-(2-methyl-1H-benzo[d]imidazol-1-yl)piperidine-1-carboxylate]	3410	2420	
O=C(OCCC(c1ccccc1)c1ccccc1)N1CCC(n2c(=O)[nH]c3ccccc32)CC1 [Compound 36, 3,3-diphenylpropyl 4-(1,2-dihydro-2-oxobenzo[d]imidazol-3-yl)piperidine-1-carboxylate]	1200	8540	
CCOC(=O)CCCn1c(=O)n(C2CCN(C(=O)OC[C@H](C)N(Cc3ccccc3)Cc3ccccc3)CC2)c2ccccc21 [Compound 77, (S)-2-(dibenzylamino)propyl 4-(3-(4-ethoxy-4-oxobutyl)-2-oxo-2,3-dihydro-1H-benzo[d]imidazol-1-yl)piperidine-1-carboxylate]	5700	600	
O=C(OC[C@H](Cc1ccccc1)N(Cc1ccccc1)Cc1ccccc1)N1CCC(n2c(=O)n(Cc3ccccc3)c3ccccc32)CC1 [Compound 70, (S)-2-(dibenzylamino)-3-phenylpropyl 4-(1-benzyl-1,2-dihydro-2-oxobenzo[d]imidazol-3-yl)piperidine-1-carboxylate]	3600	953	
Cc1ccccc1S(=O)(=O)N(c1ccccc1)C1CCN(C(=O)OC[C@H](C)N(Cc2ccccc2)Cc2ccccc2)CC1 [Compound 167, (S)-2-(dibenzylamino)propyl 4-(N-phenyl-2-methylphenylsulfonamido)piperidine-1-carboxylate]	3900	338	
CCCc1ccc(S(=O)(=O)n2c(=O)n(C3CCN(C(=O)OC[C@H](C)N(Cc4ccccc4)Cc4ccccc4)CC3)c3ccccc32)cc1 [Compound 55, (S)-2-(dibenzylamino)propyl 4-(2-oxo-3-(4-propylphenylsulfonyl)-2,3-dihydro-1H-benzo[d]imidazol-1-yl)piperidine-1-carboxylate]	5500	9100	
O=C(OC[C@H](Cc1ccccc1)N(Cc1ccccc1)Cc1ccccc1)N1CCC(n2c(=O)n(S(=O)(=O)c3ccccc3)c3ccccc32)CC1 [Compound 53, (S)-2-(dibenzylamino)-3-phenylpropyl 4-(1,2-dihydro-3-phenylsulfonyl-2-oxobenzo[d]imidazol-1-yl)piperidine-1-carboxylate]	22000	1940	
O=c1[nH]c2ccccc2n1C1CCN(CCN(Cc2ccccc2)Cc2ccccc2)CC1 [Compound 52, 1-(1-(2-(dibenzylamino)ethyl)piperidin-4-yl)-1H-benzo[d]imidazol-2(3H)-one]	2000	1570	
C[C@@H](COC(=O)N1CCC(n2c(=O)oc3ccccc32)CC1)N(Cc1ccccc1)Cc1ccccc1 [Compound 2, (S)-2-(dibenzylamino)propyl 4-(2-oxobenzo[d]oxazol-3(2H)-yl)piperidine-1-carboxylate]	800	14800	
C[C@@H](COC(=O)N1CCC(n2c(=O)[nH]c3ccccc32)CC1)N(Cc1ccccc1)Cc1ccccc1 [Compound 25, (S)-2-(dibenzylamino)propyl 4-(1,2-dihydro-2-oxobenzo[d]imidazol-3-yl)piperidine-1-carboxylate]	14000	4900	
O=C(OCCCN(Cc1ccccc1)Cc1cccc(Cl)c1)N1CCC(n2c(=O)[nH]c3ccccc32)CC1 [Compound 142, 3-(benzyl(3-chlorobenzyl)amino)propyl 4-(2-oxo-2,3-dihydro-1H-benzo[d]imidazol-1-yl)piperidine-1-carboxylate hydrochloride]	1200	2920	
O=c1[nH]c2ccccc2n1C1CCN(C[C@H](Cc2ccccc2)N(Cc2ccccc2)Cc2ccccc2)CC1 [Compound 51, 1-(1-((S)-2-(dibenzylamino)-3-phenylpropyl)piperidin-4-yl)-1H-benzo[d]imidazol-2(3H)-one]	4000	2110	
C[C@@H](COC(=O)N1CCC(Cn2c(=O)[nH]c3ccccc32)CC1)N(Cc1ccccc1)Cc1ccccc1 [Compound 19, (S)-2-(dibenzylamino)propyl 4-((1,2-dihydro-2-oxobenzo[d]imidazol-3-yl)methyl)piperidine-1-carboxylate]	3410	5790	
COc1ccc(CN(CCOC(=O)N2CCC(n3c(=O)[nH]c4ccccc43)CC2)Cc2ccccc2)cc1 [Compound 121, 2-(benzyl(4-methoxybenzyl)amino)ethyl 4-(2-oxo-2,3-dihydro-1H-benzo[d]imidazol-1-yl)piperidine-1-carboxylate hydrochloride]	5000	3490	
O=C(OCCCN(Cc1ccccc1)Cc1ccccc1)N1CCC(n2c(=O)[nH]c3ccccc32)CC1 [Compound 29, 3-(dibenzylamino)propyl 4-(1,2-dihydro-2-oxobenzo[d]imidazol-3-yl)piperidine-1-carboxylate]	2500	3600	
CC(C)(C)OC(=O)NCCn1c(=O)n(C2CCN(C(=O)OC[C@H](Cc3ccccc3)N(Cc3ccccc3)Cc3ccccc3)CC2)c2ccccc21 [Compound 74, (S)-2-(dibenzylamino)-3-phenylpropyl 4-(3-(2-tert-butyloxycarbonylaminoethyl)-2-oxo-2,3-dihydro-1H-benzo[d]imidazol-1-yl)piperidine-1-carboxylate]	3200	384	
C[C@@H](COC(=O)N1CCC(n2c(=O)n(S(=O)(=O)c3ccccc3)c3ccccc32)CC1)N(Cc1ccccc1)Cc1ccccc1 [Compound 54, (S)-2-(dibenzylamino)propyl 4-(2-oxo-3-phenylsulfonyl-2,3-dihydro-1H-benzo[d]imidazol-1-yl)piperidine-1-carboxylate]	1680	230	
C[C@@H](COC(=O)N1CCC(n2c(=O)n(C(=O)OC(C)(C)C)c3ccccc32)CC1)N(Cc1ccccc1)Cc1ccccc1 [Compound 67, tert-butyl 3-(1-(((S)-2-(dibenzylamino)propoxy)carbonyl)piperidin-4-yl)-2,3-dihydro-2-oxobenzo[d]imidazole-1-carboxylate]	2000	785	
C[C@@H](COC(=O)N1CCC(N(C(=S)Nc2ccccc2)c2ccccc2)CC1)N(Cc1ccccc1)Cc1ccccc1 [Compound 165, (S)-2-(dibenzylamino)propyl 4-(1,3-diphenylthioureido)piperidine-1-carboxylate]	3000	1250	
C[C@@H](COC(=O)N1CCC(Nc2ccc(Cl)c(Cl)c2)CC1)N(Cc1ccccc1)Cc1ccccc1 [Compound 86, (S)-2-(dibenzylamino)propyl 4-(3,4-dichlorophenylamino)piperidine-1-carboxylate]	3750		7250
